Measured values reported in PubChem BioAssay AID1918947 (Molecular Pharmacology Branch, DTP, NCI, 2023).

Tested on: A498 complex spheroid viability
Assay: Anticancer human tumor A498 cell line growth inhibition;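 also: spheroids exposed to agents for seven days before readout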;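 as to viability, T/C: 100% = DMSO vehicle-treated spheroids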
Conditions: for IC50: curve of first compound; for viability, T/C: stronger effect = lower value
Excerpt: Multicellular complex tumor spheroid response to LSD1 Inhibitor Iadademstat in combination with a variety of drugs and investigational agents in selected tumor cell lines
The current study was undertaken to assess response to LSD1 inhibitors in combination with standard-of-care drugs and investigational agents in solid tumor complex spheroid models as well as in the K-562 leukemia. Complex spheroids include a stromal component modeled by human endothelial cells (HUVEC) and fibroblasts modeled by human mesenchymal stem cells (MSCs). The concentration ranges selected for each drug and investigational agent were based upon clinically achievable concentrations if the clinical Cmax of the agent was known.
Compounds. The drugs and investigational agents used in this study are listed on Table 1. All of the agents used, including staurosporine (NSC755774) and gemcitabine (NSC613327), were obtained from the Developmental Therapeutics Program, NCI. FDA-approved anticancer drugs are available from the NCI at http://dtp.nci.nih.gov/branches/dscb/oncology_drugset_explanation.html. Drugs and investigational agents were >95% pure by proton nuclear magnetic resonance (NMR) and liquid chromatography/mass spectrometry (LC/MS). Stock solutions were prepared at 400x in DMSO, stored at -70 degrees C, and diluted in fresh medium prior to their use. The final concentration of DMSO in cell culture wells never exceeded 0.25% (v/v). The FDA-approved anticancer drug set is available from the Developmental Therapeutics Program at https://dtp.cancer.gov/organization/dscb/obtaining/available_plates.htm. All drugs and investigational agents were tested over a range starting from a high concentration at or near the clinical Cmax and decreasing in half-log increments. If the clinical Cmax for an agent had not been determined, the highest concentration tested was 10 microM.
Cell Lines. The patient-derived cancer cell (PDC) lines: 292921-168-R-J2-PDC, K24384-001-R-PDC, and 521955-158-R2-J5-PDC pancreatic carcinomas, 556581-035-R-J1 ovarian carcinoma, 324938-238-R-J1-PDC, 855422-203-R-J1-PDC and 883617-216-R-J1-PDC urothelial bladder carcinomas, 743489-274-T-PDC renal cell carcinoma, 138582-R-J1 Merkel cell tumor, K60290-347-R-J1 and K57222-313-R-J1-PDC glioblastomas, 653999-131-R-J2-PDC, LG0703-F948-PDC, and 349418-098-R-PDC non-small cell lung carcinomas, 885512-296-R-J2-PDC, 171881-019-R-J1-PDC breast carcinomas and 186277-243-T-J2-PDC and 233499-124-R-J2-PDC colon carcinomas were obtained from the NCI Patient-Derived Models Repository (PDMR, https://pdmr.cancer.gov). The established cell lines NCI/ADR-RES (RRID:CVCL_14520 and OVCAR-5 (RRID:CVCL_1628) ovarian carcinomas, 786-O (RRID:CVCL_1051) and A498 (RRID:CVCL_A498) renal cell carcinoma, NCI-H211 (ATCC, cat. CRL-5824; RRID:CVCL_1529), NCI-H196 (ATCC, cat. CRL-5823, RRID:CVCL_1509), SW 1271 (ATCC, cat. CRL-2177, RRID:CVCL_1716) and NCI-H1876 (ATCC, cat. CRL-5902, RRID:CVCL_1503) small cell lung carcinomas, MDA-MB-231 (RRID:CVCL_0062) and MDA-MB-468 (RRID:CVCL_0419)breast carcinomas (10-12). Pooled donor human umbilical vein endothelial cells (HUVEC, Lonza, cat. CC-2519) and human mesenchymal stem cells (hMSC, Lonza, cat. PT-2501) were purchased from Lonza (Walkersville, MD).
Cell Culture. All cells were maintained in an incubator at 37 degrees C and 5% CO2 with 95% humidity. The PDC lines were cultured according to standard operating procedures established by the NCI PDMR (https://pdmr.cancer.gov). Briefly all PDCs were thawed and cultured in Matrigel-coated flasks prepared with a working solution of 1X Ham's F-12 nutrient mix, without supplementation (Invitrogen, Waltham, MA, cat. 11765054), 100 U/mL penicillin-streptomycin (Invitrogen, cat. 15140122), and 2.5% Matrigel (Corning Inc., Corning, NY, cat. 354248) for the first three passages. […]

[1] = second compound 0.1 µM, first compound 0.0316 µM
[2] = second compound 0.1 µM, first compound 0.1 µM
[3] = second compound 0.1 µM, first compound 0.316 µM
[4] = second compound 0.1 µM, first compound 1 µM
[5] = second compound 0.1 µM, first compound 3.16 µM
[6] = second compound 0.1 µM, first compound 10 µM
[7] = second compound 0.316 µM, first compound 0.0316 µM
[8] = second compound 0.316 µM, first compound 0.1 µM
[9] = second compound 0.316 µM, first compound 0.316 µM
[10] = second compound 0.316 µM, first compound 1 µM
[11] = second compound 0.316 µM, first compound 3.16 µM
[12] = second compound 0.316 µM, first compound 10 µM
[13] = second compound 1 µM, first compound 0.0316 µM
[14] = second compound 1 µM, first compound 0.1 µM
[15] = second compound 1 µM, first compound 0.316 µM
[16] = second compound 1 µM, first compound 1 µM
[17] = second compound 1 µM, first compound 3.16 µM
[18] = second compound 1 µM, first compound 10 µM
[19] = second compound 3.16 µM, first compound 0.0316 µM
[20] = second compound 3.16 µM, first compound 0.1 µM
[21] = second compound 3.16 µM, first compound 0.316 µM
[22] = second compound 3.16 µM, first compound 1 µM
[23] = second compound 3.16 µM, first compound 3.16 µM
[24] = second compound 3.16 µM, first compound 10 µM
[25] = second compound 10 µM, first compound 0.0316 µM
[26] = second compound 10 µM, first compound 0.1 µM
[27] = second compound 10 µM, first compound 0.316 µM
[28] = second compound 10 µM, first compound 1 µM
[29] = second compound 10 µM, first compound 3.16 µM
[30] = second compound 10 µM, first compound 10 µM

| Structure (SMILES) | IC50 (second compound 0.1 µM) | IC50 (second compound 0.316 µM) | IC50 (second compound 1 µM) | IC50 (second compound 3.16 µM) | IC50 (second compound 10 µM) | viability, T/C [1] | viability, T/C [2] | viability, T/C [3] | viability, T/C [4] | viability, T/C [5] | viability, T/C [6] | viability, T/C [7] | viability, T/C [8] | viability, T/C [9] | viability, T/C [13] | viability, T/C [14] | viability, T/C [19] | viability, T/C [20] | viability, T/C [25] | viability, T/C [26] | further results |
| --- | --- | --- | --- | --- | --- | --- | --- | --- | --- | --- | --- | --- | --- | --- | --- | --- | --- | --- | --- | --- | --- |
| COc1ccc([C@@H](O)c2cc(-c3ncnc4cc(N5CCOCC5)ccc34)c(F)cc2Cl)nn1 + NC1CCC(NC2CC2c2ccccc2)CC1 | 0.113 µM | 0.154 µM | 0.128 µM | 0.13 µM | 0.126 µM | 80.5% | 53.5% | 28.8% | 20.4% | 11% | 6.4% | 79.6% | 58.5% | 35.6% | 70.6% | 55.2% | 69.3% | 54.4% | 66.8% | 54.1% | viability, T/C [10]: 23.3%; viability, T/C [11]: 12%; viability, T/C [12]: 6.71%; viability, T/C [15]: 32.8%; viability, T/C [16]: 19.6%; viability, T/C [17]: 10.3%; viability, T/C [18]: 6.44%; viability, T/C [21]: 35.4%; viability, T/C [22]: 21%; viability, T/C [23]: 9.68%; viability, T/C [24]: 5.91%; viability, T/C [27]: 35.2%; viability, T/C [28]: 23.5%; viability, T/C [29]: 10.1%; viability, T/C [30]: 5.83% |
| Cn1ncnc1C1c2n[nH]c(=O)c3cc(F)cc(c23)NC1c1ccc(F)cc1 (stereo not given) + NC1CCC(NC2CC2c2ccccc2)CC1 | > 0.1 µM | > 0.1 µM | > 0.1 µM | > 0.1 µM | > 0.1 µM | 85.1% | 85.3% | – | – | – | – | 85.7% | 90.9% | – | 78.5% | 81.3% | 79.6% | 74.9% | 75.8% | 65.3% | viability, T/C (second compound 0.1 µM, first compound 0.000316 µM): 84%; viability, T/C (second compound 0.1 µM, first compound 0.001 µM): 88.1%; viability, T/C (second compound 0.1 µM, first compound 0.00316 µM): 82.7%; viability, T/C (second compound 0.1 µM, first compound 0.01 µM): 87.4%; viability, T/C (second compound 0.316 µM, first compound 0.000316 µM): 95.5%; viability, T/C (second compound 0.316 µM, first compound 0.001 µM): 95.5%; viability, T/C (second compound 0.316 µM, first compound 0.00316 µM): 95%; viability, T/C (second compound 0.316 µM, first compound 0.01 µM): 89%; viability, T/C (second compound 1 µM, first compound 0.000316 µM): 84.2%; viability, T/C (second compound 1 µM, first compound 0.001 µM): 94.5%; viability, T/C (second compound 1 µM, first compound 0.00316 µM): 87%; viability, T/C (second compound 1 µM, first compound 0.01 µM): 84.2%; viability, T/C (second compound 3.16 µM, first compound 0.000316 µM): 83.8%; viability, T/C (second compound 3.16 µM, first compound 0.001 µM): 85.3%; viability, T/C (second compound 3.16 µM, first compound 0.00316 µM): 85.3%; viability, T/C (second compound 3.16 µM, first compound 0.01 µM): 78.5%; viability, T/C (second compound 10 µM, first compound 0.000316 µM): 77.2%; viability, T/C (second compound 10 µM, first compound 0.001 µM): 76.8%; viability, T/C (second compound 10 µM, first compound 0.00316 µM): 78.2%; viability, T/C (second compound 10 µM, first compound 0.01 µM): 74.9% |
| CC(C)c1c(-c2ccccc2)nc2c(C#N)c[nH]n2c1=O + NC1CC1c1ccc(-c2cccc(O)c2)cc1 | > 10 µM | > 10 µM | > 10 µM | > 10 µM | > 10 µM | 98% | 113% | 106% | 102% | 104% | 108% | 104% | 101% | 101% | 93.4% | 101% | 97.4% | 94% | 86.7% | 92% | viability, T/C [10]: 107%; viability, T/C [11]: 99.1%; viability, T/C [12]: 97.4%; viability, T/C [15]: 95.6%; viability, T/C [16]: 99.5%; viability, T/C [17]: 89%; viability, T/C [18]: 98%; viability, T/C [21]: 97.5%; viability, T/C [22]: 94.7%; viability, T/C [23]: 94.9%; viability, T/C [24]: 98.5%; viability, T/C [27]: 91.3%; viability, T/C [28]: 97.4%; viability, T/C [29]: 96.1%; viability, T/C [30]: 94.9% |
